Test results: patent US6800247B1, “Deactivants for dust mite allergens” (priority 1997, dated 2004)
Structures can show the parent of a compound that is named as a salt. Where two headings read alike, the source gives them in different places.

Columns and labels:
Assay type in all cases: biochemical
Der-f allergens [1] = target: T1, Der-f allergens (Dermatophagoides farinae, UniProt P16311); parameters: Amount of Allergen remaining active after deactivant treatment: unit not given here
T1 construct: Dust is collected from Hoover™ vacuum cleaner bags and passed through a series of sieves down to 63 microns; from tissue; host or cells: house dust from vacuum cleaner bags, sieved to 63 microns
T1 sequence (P16311 99-321): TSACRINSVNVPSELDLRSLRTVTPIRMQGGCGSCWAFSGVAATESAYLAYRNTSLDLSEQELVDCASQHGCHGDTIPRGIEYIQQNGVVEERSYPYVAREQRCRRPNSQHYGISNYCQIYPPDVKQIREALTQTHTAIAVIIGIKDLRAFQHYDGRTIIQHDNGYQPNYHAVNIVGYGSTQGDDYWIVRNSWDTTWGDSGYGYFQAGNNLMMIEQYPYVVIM
Procedure: (§1) The ELISA protocol for Der-f and Der-p has been developed as follows as a measure of denaturing property for denaturants.
(§2) 1. Dust is collected from Hoover™ vacuum cleaner bags and passed through a series of sieves down to 63 microns.
(§3) 2. Clean petri dishes are labelled with the chemical to be tested (on the base). Three replicates are used for each treatment.
(§4) 3. Filter paper is used to line each dish and 0.2 g of dust is added to each dish onto the filter paper. The lid (or base, as dishes are inverted) is replaced and the dish is shaken to disperse the dust evenly over the filter paper.
(§5) 4. 2% aqueous solutions of deactivant were used except for the silver chloride composite where 0.05% was used instead. Immobilised tannic acid was used as a 1% dispersion. The hydrogenerated hop end was used at the 2% level (in the form of a 10% solution). Water-insoluble deactivants were emulsified with a sorbitone oleate surfactant (i.e. Tween). Hinokitol was used at 0.5% not 2%.
(§6) 5. The dust is sprayed with the corresponding treatment, 2 sprays are required for sufficient coverage (1 spray=1.5 ml).
(§7) 6. Leave uncovered at room temperature, in well aerated room, until filter paper is dry. This can take up to 4 hours.
(§8) 7. Empty dust in epindorfs labelled according to treatment.
(§9) 8. Add 1 ml of 5% Bovine Serum Albumen Phosphate Butter Saline—Tween BSA-PBS-T to each epindorf (5 times the weight of dust) (20 ml of BSA-PBS-T=1 g of BSA in 20 ml of PBS-T).
(§10) 9. Leave overnight in a refrigerator.
(§11) 10. Centrifuge for 5 minutes at 13,000 rpm.
(§12) 11. Decant the supernatant into a new epindorf labelled according to treatment.
(§13) 12. Centrifuge again for 5 minutes at 13,000 rpm.
(§14) 13. Make up dilutions of 1:10 and 1:100 by adding 100 μl of neat solution to 900 μl of 1% BSA-PBS-T (1:10). This is repeated using 100 μl of 1:10 dilution and add to 900 μl of 1% BSA-PBS-T for 1:100 dilution.
(§15) ELISA Protocol 2 for Der-f and Der-p: Indoor Biotechnologies
(§16) 1. Prepare samples and dilutions as in protocol
(§17) 2. Prepare 500 ml of 50 mM carbonate/bicarbonate buffer by dissolving 0.795 g Na2CO3 and 1.465 g NaHCO3 in 500 ml of distilled water. Check the pH is at 9.6. (This solution is kept in the refrigerator in a conical flask).
(§18) 11 ml of carbonate/bicarbonate buffer is added to the dispensing tray.
(§19) 11 μl of Der-f1 or Der-p1 monoclonal antibody
(§20) (Stored in freezer, epindorf in use is in the refrigerator) is added to the buffer. To ensure that all the antibody is removed from the tip, wash out the pipette tip by sucking up and down I the buffer solution, gently stirring to mix thoroughly.
(§21) 4. Pipette 100 μl of the antibody solution into each well of the microtiter plate, cover with a plate sealer and leave overnight at 4° C.
(§22) 5. Empty the plate by quickly inverting it over the sink, then dry by banging on a stack of paper towels.
(§23) 6. Add 200 μl of wash buffer to each well: PBS/0/05% tween (PBS-T)
(§24) 7. Repeat stages 5 and 6 once more (making a total of 2 washes).
(§25) 8. Make sure all the wells are dry, then add 100 μl of 1% BSA-PBS-T. Replace the plate sealer and incubate for 1 hour at room temperature*.
(§26) 9. Repeat steps 5 to 7 (2 washes).
(§27) This is mixed thoroughly.
(§28) 11. Add 100 μl aliquots of the allergen sample to the plate along with the standard allergen samples for the reference curve in duplicate. The standards usually go in the first two columns on the left hand side, with the least concentrated on top. Incubate for 1 hour.
(§29) 12. Follow stages 5 to 6, completing a total of 5 washes.
(§30) 13. Pour 11 ml of 1% BSA-PBS-T(0.11 g of BSA to 11 ml of PBS-T) to the dispensing tray. Add 11 μl of the biotinylated monoclonal antibody (refrigerator) and mix thoroughly.
(§31) 14. Pipette 100 μl into each well and incubate for 1 hour at room temperature.
(§32) 15. Empty plate and wash as described in stage 12. (5 washes).
(§33) 16. Add 11 μl of Streptavidin (freezer) to 11 ml of 1%BSA-PBS-T. Pipette 100 μl into each well and incubate for 30 minutes. Reserve any remaining solution in a vial.
(§34) 17. Empty plate and wash as described in stage 12 (5 washes).

Der-f allergens [2] = target: T1, Der-f allergens; details: for Ratio of actives remaining after deactivant treatment over those remaining after tannic acid treatment: Examples 48-55, tested as above and compared with tannic acid
Procedure: as §1, §2, §3, §4, §5, §6, §7, §8, §9, §10, §11, §12, §13, §14, §15, §16, §17, §18, §19, §20, §21, §22, §23, §24, §25, §26, §27, §28, §29, §30, §31, §32, §33, §34

Der-p allergens = target: T2, Der-p allergens (Dermatophagoides pteronyssinus, UniProt P08176); assay: Deactivation of Der-p allergens (ELISA protocol), summary statement
T2 construct: Dust is collected from Hoover™ vacuum cleaner bags and passed through a series of sieves down to 63 microns; from tissue; host or cells: house dust from vacuum cleaner bags, sieved to 63 microns
T2 sequence (P08176 99-320): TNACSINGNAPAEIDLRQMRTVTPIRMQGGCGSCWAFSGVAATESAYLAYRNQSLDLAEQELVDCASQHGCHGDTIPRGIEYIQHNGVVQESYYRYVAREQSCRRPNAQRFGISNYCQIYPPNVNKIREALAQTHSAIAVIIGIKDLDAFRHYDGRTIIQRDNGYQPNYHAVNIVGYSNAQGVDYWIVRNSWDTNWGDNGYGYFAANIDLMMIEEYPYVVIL
Procedure: The test procedure in Examples 1 to 55 is as follows and is known as the ELISA protocol.
as §1, §15, §19

[3] = Der-f, 0.2 g sieved house dust sprayed with 2% aqueous deactivant (AgCl composite 0.05%, immobilised tannic acid 1%, hinokitol 0.5%)
[4] = Der-f, compared with vacuuming only, no deactivant, 2% deactivant (AgCl composite 0.05%, immobilised tannic acid 1%, hinokitol 0.5%)

Compound	Ratio of remaining active allergen after Deactivant/Tannic Acid Treatment (Der-f allergens [1])	Amount of Allergen remaining active after deactivant treatment (Der-f allergens [1]; [3])	Amount of active Allergen remaining after deactivant treatment (Der-f allergens [2]; [4])	Amount of Allergen remaining active after deactivant treatment (Der-f allergens [1])	Amount of active Allergen remaining after deactivant treatment (Der-f allergens [2])	Ratio of actives remaining after deactivant treatment over those remaining after tannic acid treatment (Der-f allergens [2])	Effectiveness against Der-p allergens (Der-p allergens)	Ratio of remaining active allergen after Deactivant/Tannic Acid Treatment (Der-f allergens [1]; Der-f, ratio below 1 = better than tannic acid)
CCCOCC(C)O (centres unmarked) [1-propoxy-propanol-2]	2.194	3950	1233					
CCCCC(CC)COC(=O)CC(C(=O)OCC(CC)CCCC)S(=O)(=O)[O-].[Na+] (centres unmarked) [Aerosol OT]	1.298	1525	4494					
N.N.O=S(=O)(O)O [Ammonium sulphate, ammonium sulphate]	1.618			2750	2325			
O=C1c2ccccc2C(=O)c2ccccc21 [Anthraquinone sodium salt, the sodium salt of anthraquinone]	0.765	1530						
N=C(NCCCCCCNC(=N)NC(=N)Nc1ccc(Cl)cc1)NC(=N)Nc1ccc(Cl)cc1 [Chlorohexidine, 1,1′-hexamethylenebis [5-(4-chlorophenyl)]-biguanide]	0.991	1412.5	2281			3.0		
O=C(NCO)N(CO)C1(CO)C(=O)NC(=O)N1CO (centres unmarked) [Germall II, diazolidinylurea]	0.685	950				1.5		
O=CCCCC=O [Glutaraldehyde, qlutaraldehyde]			816			1.5	effective against Der-p allergens only	
CC(C)c1cccc(=O)c(O)c1 [Hinokitol, β-thujaplicin]	1.533	3065	2058					
O=C1O[C@H]([C@@H](O)CO)C(O)=C1O [L-Ascorbic Acid, L-ascorbic acid]	1.333	2000	1438					
O=C1C=CC(=O)O1 [Maleic anhydride, maleic anhydride]	0.875	1312.5	783			1.0		
CN1CCCC1=O [N-methyl pyrrolidone, N-methylpyrrolidone]	1.362	1600				4.0		
C=CCc1cc(OC)c2c(c1OC)OCO2 [Parsley Camphor]		1225	2581					0.883
O=C([O-])CS.[K+] [Potassium thioglycolate, potassium thioglycolate]			3092				effective against Der-p allergens only	
Cc1ccc(C(C)C)c(O)c1 [Thymol, 6-isopropyl-m-cresol]	0.523	725	1500			4.0		
NC(N)=O [Urea, urea]	2.500	3750						
CCCCCCCCCCCCCCCC[N+](C)(C)C.[Cl-] [hexadecyltrimethylammonium chloride]	2.264	4075	2863					
aluminium chlorohydrate	2.233	1675	978					
cyclodextrin	2.265	3850						
